Patent US8507436B2, “Peptides derived from plasminogen activator inhibitor-1 and uses thereof” (D-Pharm Ltd., priority 2007, dated 2013)
“And” between values parts separate entries of the source, which are not always exact repeats. Equal values may be shown once.

Experiments:
tPA [1] = target: T1, tPA (Homo sapiens, UniProt P00750); test: tPA-induced opening of the BBB in mice (Evans blue); assay type: in vivo; details: C57/B16 mice, 10 mg/kg tPA with 10 μM peptide i.v.
T1 construct: purchased Genentech, Inc., South San Francisco, Calif
Source text: The brain content of Evans blue was quantified by absorbance at 620 nm.

tPA [2] = target: T2, tPA (Rattus norvegicus, UniProt P19637); test: Infarct volume after embolic stroke in rats; assay type: in vivo; details: peptide 1 mg per kg in saline, absence of tPA
T2 construct: purchased Genentech, Inc., South San Francisco, Calif
Protocol: (§1) Embolic stroke Embolic stroke was induced according to the previously reported microembolism model (Bdeir, K. et al. 2000 Blood 96, 1820-1826) as adapted to stroke (Atochin, D. N. et al. 2004. Stroke 35, 2177-2182). Microemboli were prepared, dissected, and homogenized as described (Bdeir K et al. 2000, supra). The suspension of microemboli used to induce stroke contained 1.4×10^6 microparticles, with an average diameter of 3 μm.
(§2) Experiments were performed in rats as described previously (Ding-Zhou, L. et al. 2002, supra) with some modifications. Briefly, Sprague-Dawley rats (mean weight 250 g) were anesthetized by i.p. injection of ketamine (75 mg per mL) and xylazine (5 mg per mL). The carotid artery was exposed and an arteriotomy was performed. A polyethylene catheter with an inner diameter of […] was used to inject the solution of microemboli (1.4×10^6 particles) directly into the exposed internal carotid artery. The catheter was flushed with 0.25 ml normal saline and carefully withdrawn. After washing the surgical site with saline containing 1 mM hexacapron, the incision was closed.
(§3) After induction of embolic stroke, rats were divided into 4 treatment groups (n=7 each): tPA (6 mg per kg) or tPA (6 mg per kg) with either peptide 206, peptide 218 O, or peptide 218 N (1 mg per kg) in normal saline were injected i.v., 2 hours after the catheter was withdrawn. Control groups received a vehicle consisting of normal saline alone or peptides 206 or 218 (1 mg per kg) in saline. 50% of the dose was given as a bolus injection and the remainder was infused over 60 min. The rats were returned to their cages after recovering from anesthesia. Twenty-four hours after the procedure, the rats were euthanized with an overdose of Nembutal and the infarct size was measured.
(§4) Measuring infarct volume The brain was removed and sectioned coronally into 2-mm segments. Brain slices were immersed in 2% 2,3,5-triphenyltetrazolium chloride (TTC) in saline, incubated for 30 minutes at 37° C. and placed in 4% formalin/PBS overnight. The area of infarction remains unstained, appearing white, making it clearly distinguishable from stained viable tissue. The sections were photographed and the infarct area measured using the NIH computer image analysis program. Infarct volume was defined as the sum of the unstained areas of all sections, multiplied by their thickness and expressed in cubic millimeters. Data are represented as mean±SE. Differences were analyzed by ANOVA followed by the t-test and the level of significance was corrected using a post-hoc analysis with the Bonferroni test. Statistical significance was set at P<0.05.
(§5) The effect of PAI-1 derived peptides on tPA treated rats after embolic stroke induced by injection of microthrombi directly into the MCA was also examined. […]

tPA [3] = target: T3, tPA (Sus scrofa, UniProt Q8SQ23); test: Brain water content after fluid percussion brain injury (FPI) in piglets; assay type: in vivo, pigs; details: peptide 1 mg/kg i.v. 30 min prior to FPI, no exogenous tPA, normal 78.87±0.75%, vehicle after injury 84.1±0.45%
T3 construct: purchased Genentech, Inc., South San Francisco, Calif
Protocol: (§6) Fluid Percussion Brain Injury (FPI) method. The method was performed as described by Armstead et al., Nat. Neurosci.
(§7) Brain water content Brain water content (BWC) was determined by measuring the wet and dry weights of the brain tissue and by using the formula BWC=wet weight-dry weight/wet weight×100. Data were analyzed by analysis of variants with a Student-Newman-Keuls post-hoc test. A P<0.05 was considered significant.
(§8) Brain water content (BWC) was determined by measuring the wet and dry weights of the brain tissue and by using the formula BWC=wet weight-dry weight/wet weight×100. Data were analyzed by analysis of variants with a Fischer's post-hoc test. A P<0.05 was considered significant.

tPA [4] = test: as above; assay type: in vivo, pigs; details: for Brain water content after FPI in the presence of tPA: tPA 2 mg/kg i.v. with peptide 1 mg/kg i.v.
Protocol: as §6, §7, §8

tPA [5] = test: Infarct volume after embolic stroke in rats; assay type: in vivo
Protocol: as §1, §2, §3, §4, §5

tPA [6] = target: T1, tPA; assay type: in vivo; details: rats
Protocol: MCA occlusion. All studies were conducted in accordance with the NIH Guide for the Care and Use of Laboratory Animals. Sprague-Dawley rats (mean weight 250 g) were fed on regular chow and allowed free access to drinking water. Rats were anesthetized with an i.p. injection of ketamine (75 mg per ml, Apharmo) and xylazine (5 mg per ml, Bayer). Body temperature was maintained at 37±0.5° C. by means of a heating lamp. Focal cerebral ischemia was induced by occluding the left MCA with an intraluminal filament (Ding-Zhou, L. et al. 2002 Eur J. Pharmacol. 457, 137-146). Briefly, the left common and external carotid arteries were isolated through a midline neck incision and ligated with a 4-0 silk suture (Ethicon). An arteriotomy was fashioned in the common carotid artery just proximal to the carotid bifurcation. […] Twenty-four hours later. rats were euthanized with an overdose of Nembutal and the infarct size was measured.
Measuring infarct volume The brain was removed and sectioned coronally into 2-mm segments. […] The sections were photographed and the infarct area measured using the NIH computer image analysis program. […] Differences were analyzed by ANOVA followed by the t-test and the level of significance was corrected using a post-hoc analysis with the Bonferroni test. […]
The effect of the PAI-1 derived peptides on infarct size after transient mechanical obstruction of the MCA in rats treated with tPA was examined. tPA injected intravenously two hours after establishing reperfusion increased the infarct size from 16±4.6 to 48.333±8.7 mm3 (FIG. 2). […] The infarct size measured in the presence of peptide 206 was 20.333±4.8 while in the presence of peptide 218 N its size was only 13.3±3.6 mm3 (P<0.05; FIG. 2).
The effect of the PAI-1 derived peptides on infarct size was determined in rats that underwent MCA and reperfusion and four hours later treated with tPA alone or together with PAI-1 derived peptides. tPA injected intravenously four hours after establishing reperfusion increased the infarct size from 68±7 to 77±9 mm3 (FIG. 7).

tPA [7] = target: T1, tPA; test: tPA-related mortality and intracranial hemorrhage after transient mechanical obstruction of the MCA in rats; assay type: in vivo
Protocol: MCA occlusion. All studies were conducted in accordance with the NIH Guide for the Care and Use of Laboratory Animals. Sprague-Dawley rats (mean weight 250 g) were fed on regular chow and allowed free access to drinking water. Rats were anesthetized with an i.p. injection of ketamine (75 mg per ml, Apharmo) and xylazine (5 mg per ml, Bayer). Body temperature was maintained at 37±0.5° C. by means of a heating lamp. Focal cerebral ischemia was induced by occluding the left MCA with an intraluminal filament (Ding-Zhou, L. et al. 2002 Eur J. Pharmacol. 457, 137-146). Briefly, the left common and external carotid arteries were isolated through a midline neck incision and ligated with a 4-0 silk suture (Ethicon). An arteriotomy was fashioned in the common carotid artery just proximal to the carotid bifurcation. A 4-0 nylon monofilament (Ethicon) was introduced through this incision into the internal carotid artery and advanced distal to the carotid bifurcation to occlude the origin of the MCA; the thread was carefully withdrawn 2 hours later. tPA alone at the indicated concentrations, tPA together with the PAI-1 derived peptides 206 (EEIIMD of SEQ ID NO: 11) or peptide 218 N (Ac-RMAPEEIIMDRPFLFVVR-amide of SEQ ID NO: 1) or peptide 218 O (Ac-RMAPEEIIMDRPFLYVVR-amide of SEQ ID NO: 2) were injected i.v. 2 hours after the thread had been withdrawn. Rats were returned to their cages after recovering from anesthesia. Twenty-four hours later. rats were euthanized with an overdose of Nembutal and the infarct size was measured.

T1 sequence (P00750 36-562): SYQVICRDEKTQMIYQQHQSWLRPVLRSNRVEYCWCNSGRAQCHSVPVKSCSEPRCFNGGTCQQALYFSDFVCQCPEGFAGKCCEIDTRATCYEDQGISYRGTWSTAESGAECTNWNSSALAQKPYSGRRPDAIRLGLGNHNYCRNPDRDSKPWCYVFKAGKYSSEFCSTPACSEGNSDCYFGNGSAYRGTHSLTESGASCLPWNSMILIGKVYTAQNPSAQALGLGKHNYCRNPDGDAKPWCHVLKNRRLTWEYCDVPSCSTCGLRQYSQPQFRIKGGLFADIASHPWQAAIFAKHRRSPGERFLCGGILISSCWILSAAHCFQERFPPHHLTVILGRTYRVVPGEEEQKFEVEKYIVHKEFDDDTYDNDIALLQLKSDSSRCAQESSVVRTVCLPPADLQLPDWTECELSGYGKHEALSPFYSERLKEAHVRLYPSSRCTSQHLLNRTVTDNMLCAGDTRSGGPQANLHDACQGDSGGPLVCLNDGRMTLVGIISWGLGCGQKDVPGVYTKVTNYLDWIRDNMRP
T2 sequence (P19637 33-559): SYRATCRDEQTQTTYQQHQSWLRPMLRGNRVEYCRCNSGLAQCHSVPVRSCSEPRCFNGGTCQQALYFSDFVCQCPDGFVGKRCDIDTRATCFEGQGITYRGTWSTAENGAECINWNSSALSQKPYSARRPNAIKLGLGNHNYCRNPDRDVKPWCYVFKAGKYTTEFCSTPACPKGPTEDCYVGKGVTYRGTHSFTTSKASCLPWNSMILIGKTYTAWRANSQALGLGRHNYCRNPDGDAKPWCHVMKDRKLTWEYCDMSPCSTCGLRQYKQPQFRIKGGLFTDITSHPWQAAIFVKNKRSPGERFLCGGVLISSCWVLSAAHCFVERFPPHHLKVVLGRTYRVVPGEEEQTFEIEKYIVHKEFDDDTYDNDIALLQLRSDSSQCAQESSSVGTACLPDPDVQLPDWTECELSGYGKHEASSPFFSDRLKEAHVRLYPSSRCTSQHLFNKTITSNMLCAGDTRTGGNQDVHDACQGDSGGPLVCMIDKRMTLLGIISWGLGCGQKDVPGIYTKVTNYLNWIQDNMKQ
T3 sequence (Q8SQ23 36-562): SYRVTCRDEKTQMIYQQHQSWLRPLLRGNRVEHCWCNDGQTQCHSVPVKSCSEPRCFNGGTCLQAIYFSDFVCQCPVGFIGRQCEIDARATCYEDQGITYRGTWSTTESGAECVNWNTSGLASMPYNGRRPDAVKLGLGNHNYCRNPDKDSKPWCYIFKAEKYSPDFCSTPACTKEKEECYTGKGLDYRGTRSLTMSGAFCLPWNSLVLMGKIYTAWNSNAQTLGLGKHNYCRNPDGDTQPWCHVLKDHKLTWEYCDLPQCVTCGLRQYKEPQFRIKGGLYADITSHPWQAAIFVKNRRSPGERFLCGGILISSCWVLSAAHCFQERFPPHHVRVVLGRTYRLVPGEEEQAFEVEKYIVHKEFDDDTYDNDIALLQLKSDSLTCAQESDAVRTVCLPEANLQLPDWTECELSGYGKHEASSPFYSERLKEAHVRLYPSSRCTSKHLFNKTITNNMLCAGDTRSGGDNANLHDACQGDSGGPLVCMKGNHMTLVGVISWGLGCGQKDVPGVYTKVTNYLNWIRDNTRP

Compound | Prevention of tPA-induced loss of BBB integrity (tPA [1]) | Post-stroke infarct size, peptide alone (tPA [2]) | Brain water content after FPI (tPA [3]) | Brain water content after FPI in the presence of tPA (tPA [4]) | Infarct volume, tPA with peptide (tPA [5]; tPA 6 mg per kg with peptide 1 mg per kg i.v. two hours after embolization) | Infarct size, tPA with peptide four hours after reperfusion (FIG. 7) (tPA [6]; MCA and reperfusion, tPA co-injected with peptide four hours later) | Absolute mortality, tPA co-injected with peptide (FIG. 6A) (tPA [7]; mechanical MCA obstruction, tPA alone 28.6%) | Reduction of the tPA associated increase in mortality (FIG. 6B) (tPA [7]; mechanical MCA obstruction, tPA with peptide) | tPA-induced mortality with peptide, in per cent from Table 1 (tPA [7]; tPA plus peptide, tPA alone ~29%) | Decrease of infarct volume by tPA alone (tPA [5]; tPA 6 mg per kg i.v. two hours after embolization) | Brain water content after FPI, tPA alone (tPA [4]; tPA 2 mg/kg i.v. without peptide) | Infarct size, tPA alone four hours after reperfusion (tPA [6]; MCA and reperfusion, tPA i.v. four hours later, control 68±7) | Infarct size, tPA alone (tPA [6]; mechanical MCA obstruction, tPA i.v. two hours after reperfusion, saline control 16±4.6) | Mortality, tPA alone, in per cent from Table 1 (tPA [7]; 6 out of 21) | Mortality (dead rats/rats in group) (tPA [7]; Table 1, control 1/12) | Mortality rate, tPA alone (FIG. 6) (tPA [7]; mechanical MCA obstruction, tPA i.v. two hours after reperfusion, saline control 7.7%)
EEIIMD [peptide 206, 6-mer peptide corresponding to amino acid residues 373-378 of human PAI-1] | no effect | little effect on infarct size | 81.379±0.3% | 82.351±0.55% |  |  |  |  |  |  |  |  |  |  |  | 
CC[C@H](C)[C@H](NC(=O)[C@H](CCC(=O)O)NC(=O)[C@H](CCC(=O)O)NC(=O)[C@@H]1CCCN1C(=O)[C@H](C)NC(=O)[C@H](CCSC)NC(=O)[C@H](CCCNC(=N)N)NC(C)=O)C(=O)N[C@H](C(=O)N[C@@H](CCSC)C(=O)N[C@@H](CC(=O)O)C(=O)N[C@@H](CCCNC(=N)N)C(=O)N1CCC[C@H]1C(=O)N[C@@H](Cc1ccccc1)C(=O)N[C@@H](CC(C)C)C(=O)N[C@@H](Cc1ccccc1)C(=O)N[C@H](C(=O)N[C@H](C(=O)N[C@@H](CCCNC(=N)N)C(N)=O)C(C)C)C(C)C)[C@@H](C)CC [peptide 218 N, Ac-RMAPEEIIMDRPFLFVVR-amide] | about 90% | significantly reduced post-stroke infarct size | 79.343±0.25% | 79.643±0.51% | smaller infarct volumes than those treated with tPA and peptide 206 or tPA and peptide 218 O | significantly stronger than that of 218 O and 206 | 15.4% | 63% | 9% |  |  |  |  |  |  | 
tPA: Recombinant tPA purchased from Genentech; thrombolytic agent, tissue-type plasminogen activator |  |  |  |  |  |  |  |  |  | approximately 48% | 87.12±0.6% | 77±9 mm3 | 48.333±8.7 mm3 | ~29% | 6 out of 21 and 6/21 | 28.6%
